In US4002623A, “Anti-inflammatory 1-[3-(dialkylamino)propyl]-2-acylaminobenzimidazoles and 2-acylamino-3-[3-(dialkylamino)-propyl]imidazo[4,5-b]pyridines” (Pfizer Inc., priority 1974, dated 1977):

assay: adjuvant arthritis screen (Walz et al.), swelling of the non-injected left hind foot on Day 16; type: in vivo, male inbred Lewis rats; conditions: Rattus norvegicus, 384 h, 10 mg./kg. ip, daily day -1 through day 15, read-out: Activity Percent Inhibition
Source text: The adjuvant arthritis test described by Walz et al., Ann. Rheum. Dis., 30, 303 (1971) was selected as the method of choice for the determination of the extent of which the novel compounds of the present invention are therapeutically effective as anti-inflammatory agents. Adjuvant arthritis is a crippling deformity in rats resulting from diffuse connective tissue involvement. It is considered by some authorities to be the best available experimental animal model of human rheumatoid arthritis because of its strong clinical and pathological similarities to the human disease and because it can be effectively treated with known anti-arthritic drugs. In this test, lesions resembling those of human rheumatoid arthritis are induced by the injection of complete Freund's adjuvant into one hind leg of a rat. A vigorous inflammatory response occurs in the injected hind leg and reaches its greatest size in about four days. This primary response is followed by the development of a second inflammatory response, appearing about 12-16 days post-injection, that occurs in the uninjected hind leg. While the compounds of the invention are capable of inhibiting the degree of inflammation in both legs, the inhibition of swelling in the uninjected leg at 16 days is considered to be the more meaningful measure of antiarthritic activity.
The adjuvant arthritis screen as described by Walz et al. (Ann. Rheum. Dis., 30: 303 (1971), was used to evaluate the above prepared compounds.
The screen is conducted using male inbred Lewis rats weighing approximately 250 gm. The animals are dosed with drug beginning on day- 1 and continuing daily through day 15. On Day 0, the subplanter surface of the right hind paw is injected with 0.1cc of a 1% suspension of Mycobacterium butyricum (Freunds adjuvant) in Primol (Esso). The swelling of the non-injected left hind foot on Day 16, resulting from immune response to adjuvant, was determined for dosed animals and controls. The foot volume is measured by immersing the paw to the anatomical hairline into a mercury reservoir which is connected to a Statham pressure transducer and a recording device. The results are expressed as % inhibition calculated according to the following equation: [formula] The results obtained are as follows for [drawing 22] where Z is --N(CH3)2 and X is carbon: […]

SMILES | inhibition in vivo at 10 mg/kg [%]
O=C(Nc1nc2ccccc2n1CCCN1CCN(Cc2ccccc2)CC1)c1cccc(C(F)(F)F)c1 [3-Trifluoromethylphenyl; H; H; drawing 27] | 35
CN(C)CCCn1c(NC(=O)c2ccc(Cl)cc2)nc2ccccc21 [4-Chlorophenyl; H; H; Z = N(CH3)2, 1-[3-(dimethylamino)propyl]-2-(4-chlorobenzamido)-benzimidazole] | 27
COc1ccc(C(=O)Nc2nc3ccccc3n2CCCN2CCN(Cc3ccccc3)CC2)cc1 [4-Methoxyphenyl; H; H; drawing 27] | 32

same assay, conditions: Rattus norvegicus, 384 h, 10 mg./kg. po, daily day -1 through day 15, read-out: Activity Percent Inhibition

SMILES | inhibition in vivo at 10 mg/kg [%]
CN1CCN(CCCn2c(NC(=O)c3cccc(C(F)(F)F)c3)nc3cc(C(F)(F)F)ccc32)CC1 [3-Trifluoromethylphenyl; CF3; H; drawing 24, 1-[3-(4-methyl-1-piperazinyl)propyl]-2-(3-trifluoromethylbenzamido)-5-trifluoromethylbenzimidazole] | 46
CN1CCN(CCCn2c(NC(=O)c3cccc(C(F)(F)F)c3)nc3cc(Cl)ccc32)CC1 [3-Trifluoromethylphenyl; Cl; H; drawing 24] | 16
CN1CCN(CCCn2c(NC(=O)c3cccc(C(F)(F)F)c3)nc3ccccc32)CC1 [3-Trifluoromethylphenyl; H; H; drawing 24] | 18
O=C(Nc1nc2ccccc2n1CCCN1CCNCC1)c1cccc(C(F)(F)F)c1 [3-Trifluoromethylphenyl; H; H; drawing 28] | 13
COc1ccc2c(c1)nc(NC(=O)c1cccc(C(F)(F)F)c1)n2CCCN1CCN(C)CC1 [3-Trifluoromethylphenyl; OCH3; H; drawing 24] | -5
CN1CCN(CCCn2c(NC(=O)c3ccc(Cl)cc3)nc3cc(Cl)ccc32)CC1 [4-Chlorophenyl; Cl; H; drawing 24] | -10
COc1ccc2c(c1)nc(NC(=O)C=Cc1ccc(Cl)cc1)n2CCCN1CCN(C)CC1 [4-Chlorostyryl; OCH3; H; drawing 24] | 47
COc1ccc(C(=O)Nc2nc3ccccc3n2CCCN(C)C)cc1 [4-Methoxyphenyl; H; H; Z = N(CH3)2, 1-[3-(dimethylamino)propyl]-2-(4-methyoxybenzamido-)benzimidazole] | 12

same assay, conditions: Rattus norvegicus, 384 h, 20 mg./kg. po, daily day -1 through day 15, read-out: Activity Percent Inhibition

SMILES | inhibition in vivo at 20 mg/kg [%]
COc1cccc(C(=O)Nc2nc3ccc(C)cc3n2CCCN2CCN(C)CC2)c1 [3-Methoxyphenyl; H; CH3; drawing 24, 1-[3-(4-methyl-1-piperazinyl)propyl]-2-(3-methoxybenzamido)-6-methylbenzimidazole] | 44
COc1cccc(C(=O)Nc2nc3cccnc3n2CCCN2CCN(C)CC2)c1 [3-Methoxyphenyl; H; H; drawing 25] | 25
COc1cccc(C(=O)Nc2nc3cc(S(=O)(=O)N(C)C)ccc3n2CCCN2CCN(C)CC2)c1 [3-Methoxyphenyl; SO2 N(CH3)2; H; drawing 24] | 13
Cc1ccc2c(c1)nc(NC(=O)c1cccc(C(F)(F)F)c1)n2CCCN1CCN(C)CC1 [3-Trifluoromethylphenyl; CH3; H; drawing 24] | 27
Cc1ccc2nc(NC(=O)c3cccc(C(F)(F)F)c3)n(CCCN3CCN(C)CC3)c2c1 [3-Trifluoromethylphenyl; H; CH3; drawing 24] | 21
CN1CCN(CCCn2c(NC(=O)c3cccc(C(F)(F)F)c3)nc3cccnc32)CC1 [3-Trifluoromethylphenyl; H; H; drawing 25, 2-(3-trifluoromethylbenzamido)-3-[3-(4-methyl-1-piperazino)propyl]imidazo[4,5-b]pyridine] | 39
Cc1cc2nc(NC(=O)c3ccc(Cl)cc3)n(CCCN3CCN(C)CC3)c2cc1C [4-Chlorophenyl; CH3; CH3; drawing 24] | 30
Cc1ccc2c(c1)nc(NC(=O)c1ccc(Cl)cc1)n2CCCN1CCN(C)CC1 [4-Chlorophenyl; CH3; H; drawing 24] | 27
CN1CCN(CCCn2c(NC(=O)c3ccc(Cl)cc3)nc3cccnc32)CC1 [4-Chlorophenyl; H; H; drawing 25] | 26
CN1CCN(CCCn2c(NC(=O)c3ccc(Cl)cc3)nc3cc(S(=O)(=O)N(C)C)ccc32)CC1 [4-Chlorophenyl; SO2 N(CH3)2; H; drawing 24] | 18
CN1CCN(CCCn2c(NC(=O)C=Cc3ccc(Cl)cc3)nc3cc(C(F)(F)F)ccc32)CC1 [4-Chlorostyryl; CF3; H; drawing 24] | 6
Cc1ccc2c(c1)nc(NC(=O)C=Cc1ccc(Cl)cc1)n2CCCN1CCN(C)CC1 [4-Chlorostyryl; CH3; H; drawing 24, 1-[3-(4-methyl-1-piperazinyl)propyl]-2-(p-chlorocinnamido)-5-methylbenzimidazole] | 39
COc1ccc(C(=O)Nc2nc3ccc(C)cc3n2CCCN2CCN(C)CC2)cc1 [4-Methoxyphenyl; H; CH3; drawing 24] | 22
COc1ccc(C(=O)Nc2nc3cccnc3n2CCCN2CCN(C)CC2)cc1 [4-Methoxyphenyl; H; H; drawing 25] | 5

same assay, conditions: Rattus norvegicus, 384 h, 33 mg./kg. ip, daily day -1 through day 15, read-out: Activity Percent Inhibition

SMILES | inhibition in vivo at 33 mg/kg [%]
COc1cccc(C(=O)Nc2nc3ccccc3n2CCCN(C)C)c1 [3-Methoxyphenyl; H; H; Z = N(CH3)2] | 21
COc1cccc(C(=O)Nc2nc3ccccc3n2CCCN2CCOCC2)c1 [3-Methoxyphenyl; H; H; drawing 23] | 29
COc1cccc(C(=O)Nc2nc3ccccc3n2CCCN2CCN(C)CC2)c1 [3-Methoxyphenyl; H; H; drawing 24] | 26
COc1cccc(C(=O)Nc2nc3ccccc3n2CCCN2CCCCC2)c1 [3-Methoxyphenyl; H; H; drawing 26] | 52
COc1cccc(C(=O)Nc2nc3cc(OC)ccc3n2CCCN2CCN(C)CC2)c1 [3-Methoxyphenyl; OCH3; H; drawing 24] | 43
Cc1cccc(C(=O)Nc2nc3ccccc3n2CCCN(C)C)c1 [3-Methylphenyl; H; H; Z = N(CH3)2] | 21
Cc1cccc(C(=O)Nc2nc3ccccc3n2CCCN2CCOCC2)c1 [3-Methylphenyl; H; H; drawing 23] | 40
Cc1cccc(C(=O)Nc2nc3ccccc3n2CCCN2CCN(C)CC2)c1 [3-Methylphenyl; H; H; drawing 24] | 39
CN1CCN(CCCn2c(NC(=O)c3cccc(C(F)(F)F)c3)nc3cc(C(F)(F)F)ccc32)CC1 [3-Trifluoromethylphenyl; CF3; H; drawing 24, 1-[3-(4-methyl-1-piperazinyl)propyl]-2-(3-trifluoromethylbenzamido)-5-trifluoromethylbenzimidazole] | 83
CN1CCN(CCCn2c(NC(=O)c3cccc(C(F)(F)F)c3)nc3cc(Cl)c(Cl)cc32)CC1 [3-Trifluoromethylphenyl; Cl; Cl; drawing 24] | 74
CN1CCN(CCCn2c(NC(=O)c3cccc(C(F)(F)F)c3)nc3cc(Cl)ccc32)CC1 [3-Trifluoromethylphenyl; Cl; H; drawing 24] | 74
O=C(Nc1nc2ccccc2n1CCCN1CCOCC1)c1cccc(C(F)(F)F)c1 [3-Trifluoromethylphenyl; H; H; drawing 23] | 0
CN1CCN(CCCn2c(NC(=O)c3cccc(C(F)(F)F)c3)nc3ccccc32)CC1 [3-Trifluoromethylphenyl; H; H; drawing 24] | 79
O=C(Nc1nc2ccccc2n1CCCN1CCCCC1)c1cccc(C(F)(F)F)c1 [3-Trifluoromethylphenyl; H; H; drawing 26] | 30
COc1ccc2c(c1)nc(NC(=O)c1cccc(C(F)(F)F)c1)n2CCCN1CCN(C)CC1 [3-Trifluoromethylphenyl; OCH3; H; drawing 24] | 57
CN1CCN(CCCn2c(NC(=O)c3ccc(Cl)cc3)nc3cc(C(F)(F)F)ccc32)CC1 [4-Chlorophenyl; CF3; H; drawing 24] | 47
CN1CCN(CCCn2c(NC(=O)c3ccc(Cl)cc3)nc3cc(Cl)ccc32)CC1 [4-Chlorophenyl; Cl; H; drawing 24] | 63
CN(C)CCCn1c(NC(=O)c2ccc(Cl)cc2)nc2ccccc21 [4-Chlorophenyl; H; H; Z = N(CH3)2, 1-[3-(dimethylamino)propyl]-2-(4-chlorobenzamido)-benzimidazole] | 51
O=C(Nc1nc2ccccc2n1CCCN1CCOCC1)c1ccc(Cl)cc1 [4-Chlorophenyl; H; H; drawing 23] | 15
CN1CCN(CCCn2c(NC(=O)c3ccc(Cl)cc3)nc3ccccc32)CC1 [4-Chlorophenyl; H; H; drawing 24] | 43
O=C(Nc1nc2ccccc2n1CCCN1CCCCC1)c1ccc(Cl)cc1 [4-Chlorophenyl; H; H; drawing 26] | 46
CN1CCN(CCCn2c(NC(=O)C=Cc3ccc(Cl)cc3)nc3cc(Cl)ccc32)CC1 [4-Chlorostyryl; Cl; H; drawing 24] | 66
CN(C)CCCn1c(NC(=O)C=Cc2ccc(Cl)cc2)nc2ccccc21 [4-Chlorostyryl; H; H; Z = N(CH3)2] | 33
COc1ccc(C(=O)Nc2nc3cc(Cl)ccc3n2CCCN2CCN(C)CC2)cc1 [4-Methoxyphenyl; Cl; H; drawing 24] | 46
COc1ccc(C(=O)Nc2nc3ccccc3n2CCCN(C)C)cc1 [4-Methoxyphenyl; H; H; Z = N(CH3)2, 1-[3-(dimethylamino)propyl]-2-(4-methyoxybenzamido-)benzimidazole] | 59
COc1ccc(C(=O)Nc2nc3ccccc3n2CCCN2CCOCC2)cc1 [4-Methoxyphenyl; H; H; drawing 23] | 54
COc1ccc(C(=O)Nc2nc3ccccc3n2CCCN2CCN(C)CC2)cc1 [4-Methoxyphenyl; H; H; drawing 24] | 27
